Measured values as given in ChEMBL document CHEMBL1201862, “PubChem BioAssay data set” (2004).
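Cells were grown in 96-well plates and exposed to each compound for 48 hours at five concentrations; endpoints were interpolated linearly between bracketing concentrations, or set to the highest concentration if not reached. Here, GI50 denotes the concentration required for 50% inhibition of growth.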 Active and inactive are the calls of the source. Rule as the data show it: active = GI50 up to about 1.1 µM and inactive = higher.

Columns and labels:
Test in all cases: growth of human tumour cells (NCI), 48 h
T47D = system: T47D
MDA-MB-231 = system: MDA-MB-231
HOP-62 = system: HOP-62
SK-MEL-5 = system: SK-MEL-5
COLO 205 = system: COLO 205
OVCAR-4 = system: OVCAR-4
OVCAR-5 = system: OVCAR-5
HCC 2998 = system: HCC 2998
OVCAR-3 = system: OVCAR-3
CAKI-1 = system: CAKI-1
SF-295 = system: SF-295
HL-60 = system: HL-60
786-0 = system: 786-0
PC-3 = system: PC-3
SNB-19 = system: SNB-19
K562 = system: K562
HOP-92 = system: HOP-92
OVCAR-8 = system: OVCAR-8
LOX IMVI = system: LOX IMVI
MOLT-4 = system: MOLT-4

SMILES	GI50 (T47D)	GI50 (MDA-MB-231)	GI50 (HOP-62)	GI50 (SK-MEL-5)	GI50 (COLO 205)	GI50 (OVCAR-4)	GI50 (OVCAR-5)	GI50 (HCC 2998)	GI50 (OVCAR-3)	GI50 (CAKI-1)	GI50 (SF-295)	GI50 (HL-60)	GI50 (786-0)	GI50 (PC-3)	GI50 (SNB-19)	GI50 (K562)	GI50 (HOP-92)	GI50 (OVCAR-8)	GI50 (LOX IMVI)	GI50 (MOLT-4)
O=Nc1ccc(O)c2ncccc12	7.53 µM (inactive)	6.43 µM (inactive)	2.8 µM (inactive)	7.21 µM (inactive)	16.1 µM (inactive)	11.6 µM (inactive)	15.7 µM (inactive)	15.6 µM (inactive)	3.33 µM (inactive)	16.3 µM (inactive)	8.05 µM (inactive)	0.581 µM (active)	4.2 µM (inactive)	14.7 µM (inactive)	16 µM (inactive)	0.711 µM (active)	3.09 µM (inactive)	3.47 µM (inactive)	3.89 µM (inactive)	
CCOC(=O)C1(C(C)=O)OC(=O)c2cnccc21 (stereo not given)	> 100 µM (inactive)	> 100 µM (inactive)		> 100 µM (inactive)	> 100 µM (inactive)		> 100 µM (inactive)	> 100 µM (inactive)	> 100 µM (inactive)	> 100 µM (inactive)	> 100 µM (inactive)	> 100 µM (inactive)	> 100 µM (inactive)	> 100 µM (inactive)	> 100 µM (inactive)	> 100 µM (inactive)	> 100 µM (inactive)	> 100 µM (inactive)	> 100 µM (inactive)	> 100 µM (inactive)
O=C(c1ccco1)N(C(=O)N1CCN(c2ccccc2)CC1)S(=O)(=O)c1ccccc1	24.2 µM (inactive)	36.9 µM (inactive)	39.1 µM (inactive)	24.4 µM (inactive)	28.4 µM (inactive)	27.5 µM (inactive)	41.6 µM (inactive)	48.4 µM (inactive)	26.9 µM (inactive)	22.8 µM (inactive)	43.6 µM (inactive)	21.2 µM (inactive)	32.1 µM (inactive)	28.6 µM (inactive)	27.7 µM (inactive)	33 µM (inactive)	27.3 µM (inactive)	32.6 µM (inactive)		21.9 µM (inactive)
CCC1(CC)CC(=NNS(=O)(=O)c2ccc(C)cc2)C1	> 100 µM (inactive)	> 100 µM (inactive)		> 100 µM (inactive)	> 100 µM (inactive)	> 100 µM (inactive)	> 100 µM (inactive)	> 100 µM (inactive)	> 100 µM (inactive)	> 100 µM (inactive)	> 100 µM (inactive)	> 100 µM (inactive)	> 100 µM (inactive)	> 100 µM (inactive)	> 100 µM (inactive)	> 100 µM (inactive)	> 100 µM (inactive)	> 100 µM (inactive)	> 100 µM (inactive)	> 100 µM (inactive)
CCC(N)(C(=O)O)C(C)C (stereo not given)	> 100 µM (inactive)	> 100 µM (inactive)	> 100 µM (inactive)	> 100 µM (inactive)	> 100 µM (inactive)	> 100 µM (inactive)	> 100 µM (inactive)	> 100 µM (inactive)	> 100 µM (inactive)	> 100 µM (inactive)	> 100 µM (inactive)	> 100 µM (inactive)	> 100 µM (inactive)	> 100 µM (inactive)	> 100 µM (inactive)	> 100 µM (inactive)	34.8 µM (inactive)	> 100 µM (inactive)	> 100 µM (inactive)	
COc1cc(C(=O)O)c(-c2cc3c(cc2C=O)OCO3)c(OC)c1OC	> 10 µM (inactive)	> 10 µM (inactive)	> 10 µM (inactive)	> 10 µM (inactive)	> 10 µM (inactive)	> 10 µM (inactive)		> 10 µM (inactive)	> 10 µM (inactive)	> 10 µM (inactive)	4.82 µM (inactive)	> 10 µM (inactive)	> 10 µM (inactive)	> 10 µM (inactive)	> 10 µM (inactive)	> 10 µM (inactive)	> 10 µM (inactive)	> 10 µM (inactive)	> 10 µM (inactive)	> 10 µM (inactive)
O=C1OS2(OCc3cccc4cccc2c34)c2ccccc21 (stereo not given)	> 100 µM (inactive)	> 100 µM (inactive)	> 100 µM (inactive)	> 100 µM (inactive)	> 100 µM (inactive)	> 100 µM (inactive)	> 100 µM (inactive)	> 100 µM (inactive)	> 100 µM (inactive)	> 100 µM (inactive)	> 100 µM (inactive)	> 100 µM (inactive)	> 100 µM (inactive)	> 100 µM (inactive)	> 100 µM (inactive)	> 100 µM (inactive)	> 100 µM (inactive)		> 100 µM (inactive)	> 100 µM (inactive)
Cc1c(/C=N/NC(=S)Nc2cccc(Cl)c2)c(=O)n(-c2ccccc2)n1C	30.4 µM (inactive)	17.6 µM (inactive)	13.9 µM (inactive)	36.1 µM (inactive)	96.6 µM (inactive)	16.4 µM (inactive)		55.6 µM (inactive)		13 µM (inactive)	10.4 µM (inactive)	24 µM (inactive)	18.3 µM (inactive)	34.6 µM (inactive)	19.1 µM (inactive)	13.8 µM (inactive)	13.3 µM (inactive)	14.1 µM (inactive)	46.8 µM (inactive)	31.3 µM (inactive)
CC(=S)NC=C(C(N)=O)C(N)=O	> 100 µM (inactive)	> 100 µM (inactive)	> 100 µM (inactive)	> 100 µM (inactive)	> 100 µM (inactive)		> 100 µM (inactive)	> 100 µM (inactive)	> 100 µM (inactive)	> 100 µM (inactive)	> 100 µM (inactive)	> 100 µM (inactive)	> 100 µM (inactive)	> 100 µM (inactive)		> 100 µM (inactive)	3.26 µM (inactive)	> 100 µM (inactive)	> 100 µM (inactive)	> 100 µM (inactive)
COC(=O)C1C(O)C(C)C(O)C(C)C=C(C)C2=C3C(=C(C)C(=O)c4c(O)c(c(C)c(OC(C)=O)c43)NC(=O)C(C)=C/C=C\C(C)C(O)C(C)C1O)OCO2 (stereo not given)	31 µM (inactive)	23.8 µM (inactive)	> 100 µM (inactive)	19.9 µM (inactive)	19.9 µM (inactive)	25.3 µM (inactive)	> 100 µM (inactive)	34.3 µM (inactive)	18.6 µM (inactive)		51.6 µM (inactive)	17.8 µM (inactive)	57.1 µM (inactive)	22.8 µM (inactive)	> 100 µM (inactive)	18.6 µM (inactive)	14.9 µM (inactive)	27.7 µM (inactive)	17.1 µM (inactive)	15.6 µM (inactive)
O=C(O)[C@@H]1NC[C@H]2C(Br)=NO[C@H]21	> 100 µM (inactive)	> 100 µM (inactive)	> 100 µM (inactive)	69.5 µM (inactive)	> 100 µM (inactive)	> 100 µM (inactive)	> 100 µM (inactive)	> 100 µM (inactive)	> 100 µM (inactive)	> 100 µM (inactive)	> 100 µM (inactive)	> 100 µM (inactive)	> 100 µM (inactive)	> 100 µM (inactive)	> 100 µM (inactive)		> 100 µM (inactive)	> 100 µM (inactive)	> 100 µM (inactive)	29.3 µM (inactive)
CCCCCCCCCCCCC(O)C(=O)O (stereo not given)	> 100 µM (inactive)	> 100 µM (inactive)	> 100 µM (inactive)	> 100 µM (inactive)	> 100 µM (inactive)	> 100 µM (inactive)	> 100 µM (inactive)	> 100 µM (inactive)	> 100 µM (inactive)	> 100 µM (inactive)	> 100 µM (inactive)	98.6 µM (inactive)	> 100 µM (inactive)	> 100 µM (inactive)	> 100 µM (inactive)	> 100 µM (inactive)	> 100 µM (inactive)	> 100 µM (inactive)	> 100 µM (inactive)	> 100 µM (inactive)
Cc1[nH]c(=O)[nH]c(=S)c1C(=O)NC(C)(CO)CO	> 100 µM (inactive)	> 100 µM (inactive)	> 100 µM (inactive)	> 100 µM (inactive)	> 100 µM (inactive)	> 100 µM (inactive)	> 100 µM (inactive)	> 100 µM (inactive)	> 100 µM (inactive)	> 100 µM (inactive)	> 100 µM (inactive)	> 100 µM (inactive)	> 100 µM (inactive)	> 100 µM (inactive)	> 100 µM (inactive)	> 100 µM (inactive)	> 100 µM (inactive)	> 100 µM (inactive)	> 100 µM (inactive)	> 100 µM (inactive)
CC(=O)NC(CCC(=O)C=[N+]=[N-])C(=O)O (stereo not given)	> 100 µM (inactive)	> 100 µM (inactive)	> 100 µM (inactive)	> 100 µM (inactive)	> 100 µM (inactive)	> 100 µM (inactive)	> 100 µM (inactive)	> 100 µM (inactive)	> 100 µM (inactive)		> 100 µM (inactive)	> 100 µM (inactive)	> 100 µM (inactive)	> 100 µM (inactive)	> 100 µM (inactive)	> 100 µM (inactive)	> 100 µM (inactive)	> 100 µM (inactive)	> 100 µM (inactive)	> 100 µM (inactive)
